Patent US10351718B2, “Optical filter and imaging device” (AGC Inc., priority 2015, dated 2019)

Legend:
[1] = Solubility of dye to resin solution; assay type: physicochemical; settings: for Solubility Evaluation / Solubility: 12.5 mass % polyester resin OKP850 in cyclohexanone:MIBK 1:1, 50° C.; for Solubility: stirred two hours, visual; for Solubility to the resin solution (in words): polyester resin OKP850 solution, 50° C., compared to dyes without branch structure in R^1
Description: Regarding several kinds of the dyes obtained above, solubility to a resin solution was evaluated. In a solubility test, as the resin solution, there was used a solution having a resin concentration of 12.5 mass % that was prepared by dissolving a polyester resin (product name: OKP850 made by Osaka Gas Chemicals Co., Ltd.) in a mixed solvent (cyclohexanone:methyl isobutyl ketone (MIBK)=1:1). Results are illustrated in Table 5 together with the kinds of the used dyes. Incidentally, the temperature of the resin solution in the solubility test was 50° C., the dye was put into the resin solution, the resultant resin solution was stirred for two hours, and whether or not the dye was dissolved was observed visually. Evaluation criteria of the solubility are as follows.
A: Solubility greater than 10 mass %
B: Solubility greater than 5 mass % and 10 mass % or less
C: Solubility 5 mass % or less

[2] = Absorption characteristic of the dye in dichloromethane; assay type: physicochemical; settings: for λ80 (wavelength with 80% transmittance on shorter wavelength side of λmax) / λmax − λ80: dichloromethane, transmittance at λmax set to 10%; for εA (maximum absorption coefficient in a wavelength of 430 to 550 nm) / εB (maximum absorption coefficient in a wavelength of 670 to 730 nm) / εB/εA / λmax (maximum absorption wavelength): dissolved in dichloromethane
Description: The dyes obtained above were each dissolved in dichloromethane, and using an ultraviolet-visible spectrophotometer (made by Hitachi High Technologies Co., Ltd., U-4100 type), each spectral transmittance curve was measured, from which a maximum absorption wavelength λmax, a wavelength λ80 with which the transmittance becomes 80% on a shorter wavelength side than the maximum absorption wavelength with the transmittance at the maximum absorption wavelength set to 10%, the difference between the maximum absorption wavelength λmax and the wavelength λ80 (λmax−λ80), a maximum absorption coefficient εA in a wavelength of 430 to 550 nm, a maximum absorption coefficient εB in a wavelength of 670 to 730 nm, and a ratio of these (εB/εA) were calculated. Note that measurement of the dye (A9) was not performed because its solubility was low. Further, for each of the following spectral transmittance curves, an ultraviolet-visible spectrophotometer (made by Hitachi High Technologies Co., Ltd., U-4100 type) was used.

Compound | Solubility Evaluation [1] | Solubility [1] [mass %] | λ80 (wavelength with 80% transmittance on shorter wavelength side of λmax) [2] [nm] | λmax − λ80 [2] [nm] | εA (maximum absorption coefficient in a wavelength of 430 to 550 nm) [2] | εB (maximum absorption coefficient in a wavelength of 670 to 730 nm) [2] | εB/εA [2] | λmax (maximum absorption wavelength) [2] [nm] | Solubility to the resin solution (in words) [1]
CC1N(C)c2cc(NS(=O)(=O)C(F)(F)F)c(C3=C([O-])C(=c4cc5c(cc4NS(=O)(=O)C(F)(F)F)=[N+](C)C(C)C5(C)C)C3=O)cc2C1(C)C (stereo not drawn) [Dye A1-2] | C (5 mass % or less) | 5 | 634 | 63 | 0.0066 | 1 | 152 | 697 | –
CCCCCCCCS(=O)(=O)Nc1cc2c(cc1C1=C([O-])C(=c3cc4c(cc3NS(=O)(=O)CCCCCCCC)=[N+](C(C)C)C(C)C4(C)C)C1=O)C(C)(C)C(C)N2C(C)C (stereo not drawn) [Dye A1-15] | A (greater than 10 mass %) | 15 | 646 | 52 | 0.0112 | 1 | 89.3 | 698 | high solubility
CCCCCCCCS(=O)(=O)Nc1cc2c(cc1C1=C([O-])C(=c3cc4c(cc3NS(=O)(=O)CCCCCCCC)=[N+](C(C)(C)CC)C(C)C4(C)C)C1=O)C(C)(C)C(C)N2C(C)(C)CC (stereo not drawn) [Dye A1-21] | A (greater than 10 mass %) | 12 | 656 | 49 | 0.0143 | 1 | 69.9 | 705 | high solubility
CC1N(C)c2cc(NS(=O)(=O)c3ccc(C(F)(F)F)cc3)c(C3=C([O-])C(=c4cc5c(cc4NS(=O)(=O)c4ccc(C(F)(F)F)cc4)=[N+](C)C(C)C5(C)C)C3=O)cc2C1(C)C (stereo not drawn) [Dye A1-8] | C (5 mass % or less) | 3 | 634 | 61 | 0.0117 | 1 | 85.5 | 695 | –
CC(C)N1c2cc(NS(=O)(=O)c3ccc(C(F)(F)F)cc3)c(C3=C([O-])C(=c4cc5c(cc4NS(=O)(=O)c4ccc(C(F)(F)F)cc4)=[N+](C(C)C)C(C)C5(C)C)C3=O)cc2C(C)(C)C1C (stereo not drawn) [Dye A1-16] | A (greater than 10 mass %) | 12 | 650 | 52 | 0.0111 | 1 | 90.1 | 702 | high solubility
CC(C)N1c2cc(NS(=O)(=O)C(F)(F)F)c(C3=C([O-])C(=c4cc5c(cc4NS(=O)(=O)C(F)(F)F)=[N+](C(C)C)C(C)C5(C)C)C3=O)cc2C(C)(C)C1C (stereo not drawn) [Dye A1-9] | A (greater than 10 mass %) | 12 | 651 | 52 | 0.0082 | 1 | 122 | 703 | high solubility
CCCc1ccc(S(=O)(=O)Nc2cc3c(cc2C2=C([O-])C(=c4cc5c(cc4NS(=O)(=O)c4ccc(CCC)cc4)=[N+](C(C)C)C(C)C5(C)C)C2=O)C(C)(C)C(C)N3C(C)C)cc1 (stereo not drawn) [Dye A1-14] | – | – | 647 | 52 | 0.0121 | 1 | 82.6 | 699 | –
CC(C)N1c2cc(NS(=O)(=O)c3ccc(F)cc3)c(C3=C([O-])C(=c4cc5c(cc4NS(=O)(=O)c4ccc(F)cc4)=[N+](C(C)C)C(C)C5(C)C)C3=O)cc2C(C)(C)C1C (stereo not drawn) [Dye A1-11] | – | – | 648 | 52 | 0.0110 | 1 | 90.9 | 700 | –
CCCCCCCCS(=O)(=O)Nc1cc2c(cc1C1=C([O-])C(=c3cc4c(cc3NS(=O)(=O)CCCCCCCC)=[N+](C)C(C)C4(C)C)C1=O)C(C)(C)C(C)N2C (stereo not drawn) [Dye A1-1] | C (5 mass % or less) | 1 | 630 | 61 | 0.0130 | 1 | 76.9 | 691 | –
